Article PMC5218480 (PLoS ONE, 2017)

System: MV-4-11 cells
Test: Gene expression microarray analysis (Affymetrix PrimeView) and GSEA
Type: cell-based, human
Parameters: RFU PODN (11730768_x_at) / Fold change /veh PODN (11730768_x_at) / RFU LINC00158 (11744669_a_at) / Fold change /veh LINC00158 (11744669_a_at) / RFU DUSP10 (11751237_a_at) / Fold change /veh DUSP10 (11751237_a_at) / RFU ID3 (11757404_x_at) / Fold change /veh ID3 (11757404_x_at) / RFU PLEKHG5 (11737974_s_at) / Fold change /veh PLEKHG5 (11737974_s_at) / RFU LRRC4B (11730491_at) / Fold change /veh LRRC4B (11730491_at) / RFU GIMAP4 (11747438_a_at) / Fold change /veh GIMAP4 (11747438_a_at) / RFU KRT8 (11758183_x_at) / Fold change /veh KRT8 (11758183_x_at) / RFU CNN1 (11734310_a_at) / Fold change /veh CNN1 (11734310_a_at) / RFU VPS37D (11726825_at) / Fold change /veh VPS37D (11726825_at) / RFU C10orf10 (11716522_x_at) / Fold change /veh C10orf10 (11716522_x_at) / RFU KIR2DL2 /// KIR2DL4 /// KIR2DL5A /// KIR2DL5B /// KIR2DS1 /// KIR2DS2 /// KIR2DS3 /// KIR2DS4 /// KIR3DL3 /// KIR3DL3 /// KIR3DS1 (11738374_at) / Fold change /veh KIR2DL2 /// KIR2DL4 /// KIR2DL5A /// KIR2DL5B /// KIR2DS1 /// KIR2DS2 /// KIR2DS3 /// KIR2DS4 /// KIR3DL3 /// KIR3DL3 /// KIR3DS1 (11738374_at) / RFU C1QL1 (11718748_at) / Fold change /veh C1QL1 (11718748_at) / RFU TMPRSS4 (11747572_a_at) / Fold change /veh TMPRSS4 (11747572_a_at) / RFU HAMP (11756126_x_at) / Fold change /veh HAMP (11756126_x_at) / RFU RNFT2 (11725882_a_at) / Fold change /veh RNFT2 (11725882_a_at) / RFU NR4A2 (11747474_a_at) / Fold change /veh NR4A2 (11747474_a_at) / RFU ABCC12 (11746883_a_at) / Fold change /veh ABCC12 (11746883_a_at) / RFU TMEM136 (11760407_x_at) / Fold change /veh TMEM136 (11760407_x_at) / RFU CLDN22 /// WWC2 (11732394_at) / Fold change /veh CLDN22 /// WWC2 (11732394_at) / RFU HLA-DPB1 (11760878_x_at) / Fold change /veh HLA-DPB1 (11760878_x_at) / RFU SPINT1 (11716480_a_at) / Fold change /veh SPINT1 (11716480_a_at) / RFU GAP43 (11754022_s_at) / Fold change /veh GAP43 (11754022_s_at) / RFU A4GNT (11735810_at) / Fold change /veh A4GNT (11735810_at) / RFU PRB3 (11715151_x_at) / Fold change /veh PRB3 (11715151_x_at) / RFU TUBB4B (11761932_at) / Fold change /veh TUBB4B (11761932_at) / RFU CAPN14 (11732068_a_at) / Fold change /veh CAPN14 (11732068_a_at) / RFU TMCC2 (11721928_a_at) / Fold change /veh TMCC2 (11721928_a_at) / RFU IRGQ (11745062_a_at) / Fold change /veh IRGQ (11745062_a_at) / RFU FAM174B (11720279_a_at) / Fold change /veh FAM174B (11720279_a_at) / RFU TMPRSS4 (11748680_a_at) / Fold change /veh TMPRSS4 (11748680_a_at) / RFU FAM212B (11763350_a_at) / Fold change /veh FAM212B (11763350_a_at) / RFU PLEKHG5 (11743358_a_at) / Fold change /veh PLEKHG5 (11743358_a_at) / RFU ZSCAN30 (11745921_a_at) / Fold change /veh ZSCAN30 (11745921_a_at) / RFU CMKLR1 (11741424_a_at) / Fold change /veh CMKLR1 (11741424_a_at) / RFU LOC101060620 /// MAPK8IP1 (11723275_at) / Fold change /veh LOC101060620 /// MAPK8IP1 (11723275_at) / RFU SPTSSB (11747773_x_at) / Fold change /veh SPTSSB (11747773_x_at) / RFU PRSS12 (11739890_at) / Fold change /veh PRSS12 (11739890_at) / RFU BIN1 (11741810_x_at) / Fold change /veh BIN1 (11741810_x_at) / RFU WNT11 (11732464_a_at) / Fold change /veh WNT11 (11732464_a_at) / RFU C10orf10 (11716521_a_at) / Fold change /veh C10orf10 (11716521_a_at) / RFU C5orf56 (11738089_at) / Fold change /veh C5orf56 (11738089_at) / RFU CYB561 (11721691_x_at) / Fold change /veh CYB561 (11721691_x_at) / RFU ANKRD19P (11752326_a_at) / Fold change /veh ANKRD19P (11752326_a_at) / RFU OR2T12 /// OR2T33 /// OR2T8 (11738714_s_at) / Fold change /veh OR2T12 /// OR2T33 /// OR2T8 (11738714_s_at) / RFU VCAN (11748164_a_at) / Fold change /veh VCAN (11748164_a_at) / RFU JSRP1 (11732532_at) / Fold change /veh JSRP1 (11732532_at) / RFU KRTAP10-11 (11738290_x_at) / Fold change /veh KRTAP10-11 (11738290_x_at) / RFU MYO3A (11730013_a_at) / Fold change /veh MYO3A (11730013_a_at) / RFU EBF3 (11725865_a_at) / Fold change /veh EBF3 (11725865_a_at) / RFU CAMK2N1 (11719241_x_at) / Fold change /veh CAMK2N1 (11719241_x_at) / RFU C5orf56 (11738088_a_at) / Fold change /veh C5orf56 (11738088_a_at) / RFU OLFML3 (11715873_a_at) / Fold change /veh OLFML3 (11715873_a_at) / RFU LOC100653217 /// NTM (11731650_a_at) / Fold change /veh LOC100653217 /// NTM (11731650_a_at) / RFU MAPK11 (11762145_a_at) / Fold change /veh MAPK11 (11762145_a_at) / RFU FIZ1 (11724087_x_at) / Fold change /veh FIZ1 (11724087_x_at) / RFU OASL (11726364_x_at) / Fold change /veh OASL (11726364_x_at) / RFU SOX15 (11748057_x_at) / Fold change /veh SOX15 (11748057_x_at) / RFU CD79A (11719716_a_at) / Fold change /veh CD79A (11719716_a_at) / RFU HIST1H1D (11736915_at) / Fold change /veh HIST1H1D (11736915_at) / RFU CASKIN2 (11723855_a_at) / Fold change /veh CASKIN2 (11723855_a_at) / RFU LOC730098 (11760151_x_at) / Fold change /veh LOC730098 (11760151_x_at) / RFU OR4N2 (11742367_at) / Fold change /veh OR4N2 (11742367_at) / RFU PRRT2 (11749266_a_at) / Fold change /veh PRRT2 (11749266_a_at) / RFU SNX32 (11753110_a_at) / Fold change /veh SNX32 (11753110_a_at) / RFU CDHR5 (11726645_a_at) / Fold change /veh CDHR5 (11726645_a_at) / RFU RCAN1 (11760418_a_at) / Fold change /veh RCAN1 (11760418_a_at) / RFU FAM167A (11723789_a_at) / Fold change /veh FAM167A (11723789_a_at) / RFU FAM26E (11764081_at) / Fold change /veh FAM26E (11764081_at) / RFU ISYNA1 (11749810_s_at) / Fold change /veh ISYNA1 (11749810_s_at) / RFU ACY1 (11761880_at) / Fold change /veh ACY1 (11761880_at) / RFU 11764098_at / Fold change /veh 11764098_at / RFU SAMD14 (11745864_x_at) / Fold change /veh SAMD14 (11745864_x_at) / RFU NPB (11741838_a_at) / Fold change /veh NPB (11741838_a_at) / RFU TMPRSS6 (11731388_a_at) / Fold change /veh TMPRSS6 (11731388_a_at) / RFU KRTAP10-2 (11738614_at) / Fold change /veh KRTAP10-2 (11738614_at) / RFU ARHGAP8 /// PRR5-ARHGAP8 (11727945_x_at) / Fold change /veh ARHGAP8 /// PRR5-ARHGAP8 (11727945_x_at) / RFU KRTAP5-7 /// NADSYN1 (11734609_at) / Fold change /veh KRTAP5-7 /// NADSYN1 (11734609_at) / RFU RASL12 (11751679_a_at) / Fold change /veh RASL12 (11751679_a_at) / RFU CDKN2B (11736163_a_at) / Fold change /veh CDKN2B (11736163_a_at) / RFU PRF1 (11729649_at) / Fold change /veh PRF1 (11729649_at) / RFU, ZNF638 /// ZNF638-IT1 / Fold change vs veh, ZNF638 /// ZNF638-IT1 / RFU, PANK3 / Fold change vs veh, PANK3 / RFU, SH3YL1 / Fold change vs veh, SH3YL1 / RFU, ZEB2 / Fold change vs veh, ZEB2 / RFU, NRIP1 / Fold change vs veh, NRIP1 / RFU, PTTG1IP / Fold change vs veh, PTTG1IP / RFU, CAPN2 / Fold change vs veh, CAPN2 / RFU, MED14 / Fold change vs veh, MED14 / RFU, SNORA58 / Fold change vs veh, SNORA58 / RFU, C1orf63 / Fold change vs veh, C1orf63 / RFU, LRRFIP1 / Fold change vs veh, LRRFIP1 / RFU, NDUFAF7 / Fold change vs veh, NDUFAF7 / RFU, SLC12A2 / Fold change vs veh, SLC12A2 / RFU, IBTK / Fold change vs veh, IBTK / RFU, ESF1 / Fold change vs veh, ESF1 / Fold change vs veh, TMEM50B / RFU, TAOK1 / Fold change vs veh, TAOK1 / RFU, ACBD3 / Fold change vs veh, ACBD3 / RFU, TMA16 / Fold change vs veh, TMA16 / RFU, RWDD3 / Fold change vs veh, RWDD3 / RFU, BCAT1 / Fold change vs veh, BCAT1 / RFU, EDEM3 / Fold change vs veh, EDEM3 / RFU, TMEM33 / Fold change vs veh, TMEM33 / RFU, WDR75 / Fold change vs veh, WDR75 / RFU, AHCTF1 / Fold change vs veh, AHCTF1 / RFU, TFRC / Fold change vs veh, TFRC / RFU, ZDHHC17 / Fold change vs veh, ZDHHC17 / RFU, NOM1 / Fold change vs veh, NOM1 / RFU, ARL8B / Fold change vs veh, ARL8B / RFU, ZBTB11 / Fold change vs veh, ZBTB11 / RFU, TAMM41 / Fold change vs veh, TAMM41 / RFU, KIAA1704 /// LOC100996395 / Fold change vs veh, KIAA1704 /// LOC100996395 / RFU, ING1 / Fold change vs veh, ING1 / RFU, TRMT61B / Fold change vs veh, TRMT61B / RFU, FUBP3 / Fold change vs veh, FUBP3 / RFU, TP53 / Fold change vs veh, TP53 / RFU, TNKS2 / Fold change vs veh, TNKS2 / RFU, ZFP14 / Fold change vs veh, ZFP14 / RFU, ACTR2 / Fold change vs veh, ACTR2 / RFU, PPP3R1 / Fold change vs veh, PPP3R1 / RFU, PIK3R1 / Fold change vs veh, PIK3R1 / RFU, HNRNPA1 / Fold change vs veh, HNRNPA1 / RFU, RNF170 / Fold change vs veh, RNF170 / RFU, ZNF28 / Fold change vs veh, ZNF28 / RFU, RNGTT / Fold change vs veh, RNGTT / RFU, OGT / Fold change vs veh, OGT / RFU, BRD1 / Fold change vs veh, BRD1 / RFU, MARS / Fold change vs veh, MARS / RFU, ZNF655 / Fold change vs veh, ZNF655 / RFU, FAHD1 / Fold change vs veh, FAHD1 / RFU, BDP1 / Fold change vs veh, BDP1 / RFU, LRRCC1 / Fold change vs veh, LRRCC1 / RFU, ARID1A / Fold change vs veh, ARID1A / RFU, ZNF146 / Fold change vs veh, ZNF146 / RFU, ZNF330 / Fold change vs veh, ZNF330 / RFU, GPN3 / Fold change vs veh, GPN3 / RFU, C9orf123 / Fold change vs veh, C9orf123 / RFU, N4BP2L2 / Fold change vs veh, N4BP2L2 / RFU, ARFIP1 / Fold change vs veh, ARFIP1 / RFU, FAM179B / Fold change vs veh, FAM179B / RFU, BCL10 / Fold change vs veh, BCL10 / RFU, UHRF1BP1L / Fold change vs veh, UHRF1BP1L / RFU, BET1 / Fold change vs veh, BET1 / RFU, CNOT2 / Fold change vs veh, CNOT2 / RFU, ZNF268 / Fold change vs veh, ZNF268 / Fold change vs veh, ZNF507 / RFU, DGCR2 / Fold change vs veh, DGCR2 / RFU, WDSUB1 / Fold change vs veh, WDSUB1 / Fold change vs veh, HSP90B1 /// MIR3652 / RFU, ADSS / Fold change vs veh, ADSS / RFU, GK / Fold change vs veh, GK / RFU, ZNF148 / Fold change vs veh, ZNF148 / RFU, TAF9 / Fold change vs veh, TAF9 / RFU, SLC1A5 / Fold change vs veh, SLC1A5 / RFU, SLMO2 / Fold change vs veh, SLMO2 / RFU, ABCC4 / Fold change vs veh, ABCC4 / RFU, LOC101060439 /// RAP1B / Fold change vs veh, LOC101060439 /// RAP1B / RFU, RFX7 / Fold change vs veh, RFX7 / RFU, GTPBP10 / Fold change vs veh, GTPBP10 / RFU, CNEP1R1 / Fold change vs veh, CNEP1R1 / RFU, BIVM-ERCC5 /// ERCC5 / Fold change vs veh, BIVM-ERCC5 /// ERCC5 / RFU, ILF3 / Fold change vs veh, ILF3 / RFU 11762660_at / Fold change /veh 11762660_at / RFU VCAN (11757783_s_at) / Fold change /veh VCAN (11757783_s_at) / RFU DDX43 (11728927_at) / Fold change /veh DDX43 (11728927_at) / RFU KRT8 (11758188_x_at) / Fold change /veh KRT8 (11758188_x_at) / RFU NKD1 (11759106_at) / Fold change /veh NKD1 (11759106_at) / RFU SRD5A1 (11742802_a_at) / Fold change /veh SRD5A1 (11742802_a_at) / RFU TPSAB1 /// TPSB2 (11721975_s_at) / Fold change /veh TPSAB1 /// TPSB2 (11721975_s_at) / RFU GSTM3 (11746129_a_at) / Fold change /veh GSTM3 (11746129_a_at) / RFU IL23R (11737362_x_at) / Fold change /veh IL23R (11737362_x_at) / RFU TMEM51 (11727254_a_at) / Fold change /veh TMEM51 (11727254_a_at) / RFU PIWIL2 (11732686_x_at) / Fold change /veh PIWIL2 (11732686_x_at) / RFU ORM1 (11744905_x_at) / Fold change /veh ORM1 (11744905_x_at) / RFU CCDC152 (11743942_at) / Fold change /veh CCDC152 (11743942_at) / RFU ECM1 (11717891_a_at) / Fold change /veh ECM1 (11717891_a_at) / RFU IL23R (11748794_a_at) / Fold change /veh IL23R (11748794_a_at) / RFU TNFAIP8L3 (11732012_x_at) / Fold change /veh TNFAIP8L3 (11732012_x_at) / RFU MBOAT4 (11741988_at) / Fold change /veh MBOAT4 (11741988_at) / RFU 11764193_at / Fold change /veh 11764193_at / RFU TMEM53 (11763286_at) / Fold change /veh TMEM53 (11763286_at) / RFU MAGEB2 (11727129_at) / Fold change /veh MAGEB2 (11727129_at) / RFU TMEM200A (11744735_a_at) / Fold change /veh TMEM200A (11744735_a_at) / RFU CCDC152 (11751479_a_at) / Fold change /veh CCDC152 (11751479_a_at) / RFU FAM211A (11726209_a_at) / Fold change /veh FAM211A (11726209_a_at) / RFU RGS16 (11746705_a_at) / Fold change /veh RGS16 (11746705_a_at) / RFU VCAN (11755009_s_at) / Fold change /veh VCAN (11755009_s_at) / RFU RHOB (11743442_s_at) / Fold change /veh RHOB (11743442_s_at) / RFU RGS16 (11720943_a_at) / Fold change /veh RGS16 (11720943_a_at) / RFU RGS16 (11720944_at) / Fold change /veh RGS16 (11720944_at) / RFU, VPS4B / Fold change vs veh, VPS4B / RFU, CREB1 / Fold change vs veh, CREB1 / RFU, DNAJC13 / Fold change vs veh, DNAJC13 / RFU, GNAQ / Fold change vs veh, GNAQ / RFU, CDK5R1 / Fold change vs veh, CDK5R1 / RFU, ZRANB3 / Fold change vs veh, ZRANB3 / RFU, CUL4A / Fold change vs veh, CUL4A / RFU, CCNY / Fold change vs veh, CCNY / RFU, UFL1 / Fold change vs veh, UFL1 / RFU, COG3 / Fold change vs veh, COG3 / RFU, DIAPH2 / Fold change vs veh, DIAPH2 / RFU, SKA2 / Fold change vs veh, SKA2 / RFU, AFF3 / Fold change vs veh, AFF3 / RFU, LMF1 / Fold change vs veh, LMF1 / RFU, IPO11 / Fold change vs veh, IPO11 / RFU, DFFB / Fold change vs veh, DFFB / RFU, FOXP1 / Fold change vs veh, FOXP1 / RFU, CARD8 / Fold change vs veh, CARD8 / RFU, STRN3 / Fold change vs veh, STRN3 / RFU, ADK / Fold change vs veh, ADK / RFU, RASSF2 / Fold change vs veh, RASSF2 / RFU, WIPF1 / Fold change vs veh, WIPF1 / RFU, LARP1B / Fold change vs veh, LARP1B / RFU, RASA1 / Fold change vs veh, RASA1 / RFU, RB1 / Fold change vs veh, RB1 / RFU, PPFIA1 / Fold change vs veh, PPFIA1 / RFU, MAT2A / Fold change vs veh, MAT2A / RFU, CCT5 / Fold change vs veh, CCT5 / RFU, WDR92 / Fold change vs veh, WDR92 / RFU, CUX1 / Fold change vs veh, CUX1 / RFU, TTC7A / Fold change vs veh, TTC7A / RFU, TMEM135 / Fold change vs veh, TMEM135 / RFU, DEPTOR / Fold change vs veh, DEPTOR / RFU, CPM / Fold change vs veh, CPM / RFU, DNAJB6 / Fold change vs veh, DNAJB6 / RFU, CACNA2D3 / Fold change vs veh, CACNA2D3 / RFU, DTX4 / Fold change vs veh, DTX4 / RFU, TFCP2 / Fold change vs veh, TFCP2 / RFU, GMCL1 /// GMCL1P1 / Fold change vs veh, GMCL1 /// GMCL1P1 / RFU, AEBP2 / Fold change vs veh, AEBP2 / RFU, SNHG1 /// SNORD22 /// SNORD25 /// SNORD26 /// SNORD27 /// SNORD28 /// SNORD29 /// SNORD31 / Fold change vs veh, SNHG1 /// SNORD22 /// SNORD25 /// SNORD26 /// SNORD27 /// SNORD28 /// SNORD29 /// SNORD31 / Fold change (Aza/veh), C12orf56 (ProbeSet 11735607_a_at) / Fold change (ACY-1035/veh), C12orf56 (ProbeSet 11735607_a_at) / Fold change (Aza/veh), FGFR1OP (ProbeSet 11751329_s_at) / Fold change (ACY-1035/veh), FGFR1OP (ProbeSet 11751329_s_at) / Fold change (Aza/veh), VPS36 (ProbeSet 11739960_a_at) / Fold change (ACY-1035/veh), VPS36 (ProbeSet 11739960_a_at) / RFU SYPL1 (11715823_x_at) / Fold change /veh SYPL1 (11715823_x_at) / RFU IGFBP7 (11715501_s_at) / Fold change /veh IGFBP7 (11715501_s_at) / RFU REEP3 (11722064_at) / Fold change /veh REEP3 (11722064_at) / RFU IGLL1 (11728026_x_at) / Fold change /veh IGLL1 (11728026_x_at): dose or concentration left out as unconfirmed
Settings: MV-4-11 cells, 48 hours

Nc1ccc(-c2cccs2)cc1NC(=O)c1ccc2c(c1)cc(C1CC1)n2CCN1CCOCC1 [ACY-1035]
RFU VCAN (11755009_s_at): 8.96 RFU
